Experimental data published in ChEMBL document CHEMBL3991601, “The target landscape of clinical kinase drugs” (Science, 2017).
pKd: −log10 of the molar value. Where a name gives a salt, the structure may show the parent alone. The source made the active and inactive calls. Rule as the data show it, for most assays here: actives have a measured Kd and inactives only a lower limit.

What was measured:
[1] = biological target: T1, dCTP pyrophosphatase 1 (Homo sapiens, UniProt Q9H773)
T1 sequence (Q9H773 whole entry): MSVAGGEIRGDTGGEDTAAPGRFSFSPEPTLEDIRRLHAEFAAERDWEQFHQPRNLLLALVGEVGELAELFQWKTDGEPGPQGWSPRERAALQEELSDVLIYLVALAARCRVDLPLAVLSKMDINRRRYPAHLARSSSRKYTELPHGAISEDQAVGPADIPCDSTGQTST

[2] = biological target: cAMP-dependent protein kinase catalytic subunit beta (Homo sapiens, UniProt P22694)
[3] = biological target: T2, Ras-related protein Rab-10 (Homo sapiens, UniProt P61026)
T2 sequence (P61026 whole entry): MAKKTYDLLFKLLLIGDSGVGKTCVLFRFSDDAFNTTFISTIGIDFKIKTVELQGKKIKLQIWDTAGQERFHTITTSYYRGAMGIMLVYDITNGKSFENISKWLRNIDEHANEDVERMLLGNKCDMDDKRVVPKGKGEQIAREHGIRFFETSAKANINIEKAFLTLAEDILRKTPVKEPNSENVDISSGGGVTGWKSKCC

[4] = biological target: Mitogen-activated protein kinase 3 (Homo sapiens, UniProt P27361)
Chain of Mitogen-activated protein kinase 3 (P27361 whole entry): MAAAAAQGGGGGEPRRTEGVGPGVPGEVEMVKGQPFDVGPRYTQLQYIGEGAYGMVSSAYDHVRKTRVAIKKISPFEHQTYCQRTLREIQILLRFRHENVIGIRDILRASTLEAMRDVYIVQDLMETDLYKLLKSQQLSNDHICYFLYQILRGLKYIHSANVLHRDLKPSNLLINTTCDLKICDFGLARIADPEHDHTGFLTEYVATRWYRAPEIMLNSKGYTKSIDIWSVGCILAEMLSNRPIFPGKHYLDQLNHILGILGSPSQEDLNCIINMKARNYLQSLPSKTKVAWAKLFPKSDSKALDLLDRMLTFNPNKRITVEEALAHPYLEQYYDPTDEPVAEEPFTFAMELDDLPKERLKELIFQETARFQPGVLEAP

[5] = biological target: 5'-AMP-activated protein kinase catalytic subunit alpha-1 (Homo sapiens, UniProt Q13131)
Chain of 5'-AMP-activated protein kinase catalytic subunit alpha-1 (Q13131 whole entry): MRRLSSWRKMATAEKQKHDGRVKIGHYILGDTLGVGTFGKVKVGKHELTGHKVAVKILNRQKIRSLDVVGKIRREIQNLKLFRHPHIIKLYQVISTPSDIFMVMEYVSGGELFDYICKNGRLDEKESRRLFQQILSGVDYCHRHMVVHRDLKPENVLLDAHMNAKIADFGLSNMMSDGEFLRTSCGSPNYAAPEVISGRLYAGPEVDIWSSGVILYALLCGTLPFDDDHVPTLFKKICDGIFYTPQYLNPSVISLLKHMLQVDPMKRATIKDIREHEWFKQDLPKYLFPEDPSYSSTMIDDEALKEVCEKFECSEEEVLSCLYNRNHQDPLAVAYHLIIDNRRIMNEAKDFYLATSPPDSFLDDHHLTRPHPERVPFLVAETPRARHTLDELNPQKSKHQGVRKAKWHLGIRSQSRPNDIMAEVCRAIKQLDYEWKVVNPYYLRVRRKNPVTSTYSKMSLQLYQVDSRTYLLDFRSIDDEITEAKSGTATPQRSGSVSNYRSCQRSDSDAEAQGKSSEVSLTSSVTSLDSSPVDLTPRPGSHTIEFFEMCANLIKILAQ

[6] = biological target: T3, Mitogen-activated protein kinase kinase kinase kinase 3 (Homo sapiens, UniProt Q8IVH8)
T3 sequence (Q8IVH8 whole entry): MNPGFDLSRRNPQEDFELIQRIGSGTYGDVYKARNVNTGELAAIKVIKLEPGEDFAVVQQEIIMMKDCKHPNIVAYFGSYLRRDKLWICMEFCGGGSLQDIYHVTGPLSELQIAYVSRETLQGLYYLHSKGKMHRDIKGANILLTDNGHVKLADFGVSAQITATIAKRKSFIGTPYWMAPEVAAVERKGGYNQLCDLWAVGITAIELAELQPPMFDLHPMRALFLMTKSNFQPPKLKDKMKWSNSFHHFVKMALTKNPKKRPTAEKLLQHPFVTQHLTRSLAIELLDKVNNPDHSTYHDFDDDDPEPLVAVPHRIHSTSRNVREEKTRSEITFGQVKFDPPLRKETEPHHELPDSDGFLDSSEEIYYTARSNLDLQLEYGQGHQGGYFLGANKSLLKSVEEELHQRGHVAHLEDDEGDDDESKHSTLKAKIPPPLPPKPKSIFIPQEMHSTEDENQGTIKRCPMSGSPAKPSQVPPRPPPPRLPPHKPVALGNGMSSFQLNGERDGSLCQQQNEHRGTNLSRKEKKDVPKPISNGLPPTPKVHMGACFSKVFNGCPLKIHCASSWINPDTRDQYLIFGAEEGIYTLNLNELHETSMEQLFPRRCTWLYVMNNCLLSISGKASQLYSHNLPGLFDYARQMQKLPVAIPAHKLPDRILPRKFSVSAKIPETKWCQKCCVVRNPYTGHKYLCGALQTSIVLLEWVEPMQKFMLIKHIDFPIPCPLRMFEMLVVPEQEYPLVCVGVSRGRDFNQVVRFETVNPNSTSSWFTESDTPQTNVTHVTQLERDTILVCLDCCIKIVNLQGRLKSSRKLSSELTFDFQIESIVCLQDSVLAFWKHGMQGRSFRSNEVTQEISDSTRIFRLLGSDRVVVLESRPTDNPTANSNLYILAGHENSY

[7] = biological target: T4, Serine/threonine-protein kinase ULK1 (Homo sapiens, UniProt O75385)
T4 sequence (O75385 whole entry): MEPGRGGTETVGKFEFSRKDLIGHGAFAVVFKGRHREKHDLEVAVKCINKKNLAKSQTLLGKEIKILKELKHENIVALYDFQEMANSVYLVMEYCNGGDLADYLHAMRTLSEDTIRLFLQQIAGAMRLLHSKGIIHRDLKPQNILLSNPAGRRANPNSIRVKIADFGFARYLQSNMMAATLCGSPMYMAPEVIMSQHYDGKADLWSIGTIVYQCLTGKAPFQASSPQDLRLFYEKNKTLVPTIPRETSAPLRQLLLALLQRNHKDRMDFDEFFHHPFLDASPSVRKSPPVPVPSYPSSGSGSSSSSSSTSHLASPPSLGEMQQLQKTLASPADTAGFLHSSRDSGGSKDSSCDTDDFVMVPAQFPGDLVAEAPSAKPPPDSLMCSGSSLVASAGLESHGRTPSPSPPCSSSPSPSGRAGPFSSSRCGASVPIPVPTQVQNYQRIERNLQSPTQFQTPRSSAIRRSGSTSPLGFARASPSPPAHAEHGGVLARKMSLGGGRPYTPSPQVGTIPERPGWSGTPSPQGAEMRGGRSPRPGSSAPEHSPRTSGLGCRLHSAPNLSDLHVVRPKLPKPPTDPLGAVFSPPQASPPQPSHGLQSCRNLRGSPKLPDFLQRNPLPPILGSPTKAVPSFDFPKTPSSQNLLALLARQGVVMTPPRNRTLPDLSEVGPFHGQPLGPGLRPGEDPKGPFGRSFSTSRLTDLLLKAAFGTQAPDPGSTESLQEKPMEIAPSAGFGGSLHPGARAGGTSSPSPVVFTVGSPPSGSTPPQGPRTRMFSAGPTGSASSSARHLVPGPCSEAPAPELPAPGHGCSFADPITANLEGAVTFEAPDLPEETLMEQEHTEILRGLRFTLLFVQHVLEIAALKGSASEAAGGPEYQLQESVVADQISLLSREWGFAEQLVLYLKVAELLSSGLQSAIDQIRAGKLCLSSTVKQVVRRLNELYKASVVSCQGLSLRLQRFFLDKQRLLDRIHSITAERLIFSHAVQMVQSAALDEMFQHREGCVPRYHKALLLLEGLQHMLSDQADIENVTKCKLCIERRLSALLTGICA

[8] = biological target: T5, Serine/threonine-protein kinase ULK3 (Homo sapiens, UniProt Q6PHR2)
T5 sequence (Q6PHR2 whole entry): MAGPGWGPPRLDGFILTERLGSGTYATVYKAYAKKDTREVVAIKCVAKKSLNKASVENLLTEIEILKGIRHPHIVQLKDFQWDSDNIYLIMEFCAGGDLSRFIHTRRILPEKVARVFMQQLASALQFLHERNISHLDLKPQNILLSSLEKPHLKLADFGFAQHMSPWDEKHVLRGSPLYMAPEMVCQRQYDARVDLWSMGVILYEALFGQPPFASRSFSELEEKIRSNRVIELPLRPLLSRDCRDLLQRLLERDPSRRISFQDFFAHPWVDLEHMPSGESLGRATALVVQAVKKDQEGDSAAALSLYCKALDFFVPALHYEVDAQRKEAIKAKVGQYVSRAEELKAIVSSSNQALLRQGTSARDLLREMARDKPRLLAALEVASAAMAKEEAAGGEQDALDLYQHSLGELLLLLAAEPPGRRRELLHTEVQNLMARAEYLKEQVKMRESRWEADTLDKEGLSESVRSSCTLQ
Also: in the data inactive means no Kd found up to 30 µM.

Row | Compound | Kd [1] | Kd [2] | Kd [3] | Kd [4] | Kd [5] | Kd [6] | pKd [7] | Kd [8] | Kd [7]
1 | CCS(=O)(=O)N1CCN(c2ccc(Nc3ncc(C(N)=O)c(NC4CC4)n3)cc2)CC1 [Cerdulatinib Hydrochloride] | > 30 µM (inactive) | > 30 µM (inactive) | > 30 µM (inactive) | > 30 µM (inactive) | 10.8 µM (active) | 0.033 µM (active) | 5.55 | 0.655 µM (active) | 
2 | Cc1nc2cc(-n3ncc(C(=O)c4cc5ccccc5[nH]4)c3N)ccc2[nH]1 [FGFR INHIBITOR DEBIO 1347] | > 30 µM (inactive) | > 30 µM (inactive) | > 30 µM (inactive) | > 30 µM (inactive) | > 30 µM (inactive) | > 30 µM (inactive) |  | > 30 µM (inactive) | > 30 µM (inactive)
3 | O=C(Nc1nc2cccc(-c3ccc(CN4CCS(=O)(=O)CC4)cc3)n2n1)C1CC1 [FILGOTINIB] | > 30 µM (inactive) | > 30 µM (inactive) | > 30 µM (inactive) | > 30 µM (inactive) | > 30 µM (inactive) | > 30 µM (inactive) |  | > 30 µM (inactive) | > 30 µM (inactive)
4 | Cc1cccc(-c2nn3c(c2-c2ccnc4ccc(C(N)=O)cc24)CCC3)n1 [GALUNISERTIB] | > 30 µM (inactive) | > 30 µM (inactive) | > 30 µM (inactive) | > 30 µM (inactive) | > 30 µM (inactive) | > 30 µM (inactive) |  | > 30 µM (inactive) | > 30 µM (inactive)
5 | CNC(=O)c1cccc2cc(Oc3ccnc4cc(OCC5(N)CC5)c(OC)cc34)ccc12 [LUCITANIB] | > 30 µM (inactive) | > 30 µM (inactive) | > 30 µM (inactive) | > 30 µM (inactive) | > 30 µM (inactive) | > 30 µM (inactive) |  | > 30 µM (inactive) | > 30 µM (inactive)
6 | CNC(=O)c1nn(C)c2c1C(C)(C)Cc1cnc(Nc3ccc(N4CCN(C)CC4)cc3)nc1-2 [MILCICLIB] | 1.59 µM (active) | > 30 µM (inactive) | > 30 µM (inactive) | > 30 µM (inactive) | > 30 µM (inactive) | 2.06 µM (active) |  | > 30 µM (inactive) | 1.75 µM (active)
7 | FC(F)(F)c1ccc(/C=C/c2nc(COc3ccc(CCCCn4ccnn4)cc3)co2)cc1 [MUBRITINIB] | > 30 µM (inactive) | > 30 µM (inactive) | > 30 µM (inactive) | > 30 µM (inactive) | > 30 µM (inactive) | > 30 µM (inactive) |  | > 30 µM (inactive) | > 30 µM (inactive)
8 | COc1ncc(-c2ccc3nccc(-c4ccnnc4)c3c2)cc1NS(=O)(=O)c1ccc(F)cc1F [OMIPALISIB] | > 30 µM (inactive) | > 30 µM (inactive) | > 30 µM (inactive) | > 30 µM (inactive) | > 30 µM (inactive) | > 30 µM (inactive) |  | > 30 µM (inactive) | > 30 µM (inactive)
9 | CCOc1cc2ncc(C#N)c(Nc3ccc(F)c(Cl)c3)c2cc1NC(=O)/C=C/CN(C)C [PELITINIB] | > 30 µM (inactive) | > 30 µM (inactive) | > 30 µM (inactive) | > 30 µM (inactive) | > 30 µM (inactive) | 0.189 µM (active) |  | > 30 µM (inactive) | > 30 µM (inactive)
10 | CCCCCCCCCCCCCCCCCCOP(=O)([O-])OC1CC[N+](C)(C)CC1 [PERIFOSINE] | > 30 µM (inactive) | > 30 µM (inactive) | > 30 µM (inactive) | > 30 µM (inactive) | > 30 µM (inactive) | > 30 µM (inactive) |  | > 30 µM (inactive) | > 30 µM (inactive)
11 | Cc1cnc(NC(=O)Nc2cc(Br)c(C)cc2OC[C@@H]2CNCCO2)cn1 [RABUSERTIB] | > 30 µM (inactive) | > 30 µM (inactive) | > 30 µM (inactive) | > 30 µM (inactive) | > 30 µM (inactive) | > 30 µM (inactive) |  | > 30 µM (inactive) | > 30 µM (inactive)

The remaining lines, values ahead:

Row | Kd [1] | Kd [2] | Kd [3] | Kd [4] | Kd [5] | Kd [6] | pKd [7] | Kd [8] | Kd [7] | Compound
12 | > 30 µM (inactive) | > 30 µM (inactive) | > 30 µM (inactive) | > 30 µM (inactive) | > 30 µM (inactive) | > 30 µM (inactive) |  | > 30 µM (inactive) | > 30 µM (inactive) | COc1ccc(S(=O)(=O)N(C(C)=O)c2ccccc2/C=C/c2cc[n+]([O-])cc2)cc1 [HMN-214]
13 | > 30 µM (inactive) | > 30 µM (inactive) | > 30 µM (inactive) | > 30 µM (inactive) | > 30 µM (inactive) | > 30 µM (inactive) |  | > 30 µM (inactive) | > 30 µM (inactive) | NC1(c2ccc(-c3nc4ccn5c(=O)[nH]nc5c4cc3-c3ccccc3)cc2)CCC1 [MK-2206]
14 | > 30 µM (inactive) | > 30 µM (inactive) | > 30 µM (inactive) | > 30 µM (inactive) | > 30 µM (inactive) | > 30 µM (inactive) |  | > 30 µM (inactive) | > 30 µM (inactive) | CN(C[C@@H]1COCCO1)S(=O)(=O)Nc1ccc2ccc3ncc(-c4cnn(C)c4)cc3c(=O)c2c1 [MK-2461]
15 | > 30 µM (inactive) | > 30 µM (inactive) | > 30 µM (inactive) | > 30 µM (inactive) | > 30 µM (inactive) | > 30 µM (inactive) |  | > 30 µM (inactive) | > 30 µM (inactive) | Cn1cc(-c2cnc3ccc4ccc(CS(=O)(=O)NCc5ccccn5)cc4c(=O)c3c2)cn1 [MK-8033]
